# Like-named read-outs stand apart in the source and are kept apart here.
# Key:
# MRSA [1] = experiment: MIC of methicillin for MRSA isolates grown with glycine or GBE (Table 1); type: cell-based, Staphylococcus aureus; settings: SW2-32 (EMRSA-1); glycine 0.2M (1.5%)
# [2] = system: vancomycin- and gentamicin-resistant Enterococcus faecium; experiment: microbe, parasite or virus in culture; type: cell-based
# Description: The agents of the present invention are not limited to the reversal of resistance in Staphylococcus. The test strains in Table 5 are patient-isolates of vancomycin- and gentamicin-resistant Enterococcus faecium. At the time of isolation, they were commonly resistant to all clinically useable antimicrobial agents.
# MRSA [3] = type: cell-based, Staphylococcus aureus; settings: 2% glycine; only in the presence of glycine
# MRSA [4] = type: cell-based, Staphylococcus aureus; settings: for MIC of methicillin: glycine 0.02M [0.15%]
# Description: Stored frozen plasma was pooled from five subjects.
# Human plasma may bind or otherwise inactivate foreign substances and good activity in plasma is indicative of good in vivo activity.
structure (smiles),measurement,setting,value
"NCC(=O)O [Glycine, glycine]",MIC of methicillin,MRSA [1],4 µg/mL
same,strains tested achieving the target MIC of vancomycin of 2 mg/l,"[2]; 0.2M glycine, Table 5",50%
same,MIC of vancomycin,"[2]; ATCC 29212, glycine 0.02M",4 µg/mL
same,MIC of vancomycin,"[2]; ATCC 29212, glycine 0.2M",2 µg/mL
same,MIC of vancomycin,"[2]; BBC, glycine 0.02M",16 µg/mL
same,MIC of vancomycin,"[2]; BBC, glycine 0.2M",4 µg/mL
same,MIC of vancomycin,"[2]; E254, glycine 0.02M",16 µg/mL
same,MIC of vancomycin,"[2]; E254, glycine 0.2M",4 µg/mL
same,MIC of vancomycin,"[2]; E267, glycine 0.02M",16 µg/mL
same,MIC of vancomycin,"[2]; E267, glycine 0.2M",4 µg/mL
same,MIC of vancomycin,"[2]; E271, glycine 0.02M",8 µg/mL
same,MIC of vancomycin,"[2]; E271, glycine 0.2M",2 µg/mL
same,MIC of vancomycin,"[2]; E285, glycine 0.02M",16 µg/mL
same,MIC of vancomycin,"[2]; E285, glycine 0.2M",2 µg/mL
same,MIC of vancomycin,"[2]; E297, glycine 0.02M",8 µg/mL
same,MIC of vancomycin,"[2]; E297, glycine 0.2M",2 µg/mL
same,MIC of vancomycin,"[2]; GBC, glycine 0.02M",8 µg/mL
same,MIC of vancomycin,"[2]; GBC, glycine 0.2M",4 µg/mL
same,MIC of vancomycin,"[2]; S226, glycine 0.02M",8 µg/mL
same,MIC of vancomycin,"[2]; S226, glycine 0.2M",4 µg/mL
same,MIC of vancomycin,"[2]; S227, glycine 0.02M",32 µg/mL
same,MIC of vancomycin,"[2]; S227, glycine 0.2M",4 µg/mL
same,MIC of vancomycin,"[2]; S283, glycine 0.02M",8 µg/mL
same,MIC of vancomycin,"[2]; S283, glycine 0.2M",2 µg/mL
same,MIC of vancomycin,"[2]; S302, glycine 0.02M",8 µg/mL
same,MIC of vancomycin,"[2]; S302, glycine 0.2M",4 µg/mL
same,MIC of vancomycin,"[2]; S315, glycine 0.02M",4 µg/mL
same,MIC of vancomycin,"[2]; S315, glycine 0.2M",1 µg/mL
same,MIC of vancomycin,"[2]; S317, glycine 0.02M",32 µg/mL
same,MIC of vancomycin,"[2]; S317, glycine 0.2M",4 µg/mL
same,MIC of vancomycin,"[2]; S319, glycine 0.02M",16 µg/mL
same,MIC of vancomycin,"[2]; S319, glycine 0.2M",4 µg/mL
same,MIC of vancomycin,"[2]; S333, glycine 0.02M",8 µg/mL
same,MIC of vancomycin,"[2]; S333, glycine 0.2M",2 µg/mL
same,MIC of vancomycin,"[2]; S337, glycine 0.02M",4 µg/mL
same,MIC of vancomycin,"[2]; S337, glycine 0.2M",2 µg/mL
same,MIC of vancomycin,"[2]; S393, glycine 0.02M",8 µg/mL
same,MIC of vancomycin,"[2]; S393, glycine 0.2M",2 µg/mL
same,MIC of vancomycin,"[2]; S497, glycine 0.02M",8 µg/mL
same,MIC of vancomycin,"[2]; S497, glycine 0.2M",2 µg/mL
same,MIC of vancomycin,"[2]; S556, glycine 0.02M",32 µg/mL
same,MIC of vancomycin,"[2]; S556, glycine 0.2M",2 µg/mL
same,MIC of vancomycin,"[2]; WBC, glycine 0.02M",8 µg/mL
same,MIC of vancomycin,"[2]; WBC, glycine 0.2M",4 µg/mL
same,transformation of MRSA into methicillin-sensitive strains,MRSA [3],transformed all MRSA into methicillin-sensitive strains
same,reduction in activity in human plasma,"MRSA [4]; 1% human plasma, approximation from Table 3",about 75%
same,MIC of methicillin,"MRSA [4]; 5518 (EMRSA-1), +1% human plasma",32 µg/mL
same,MIC of methicillin,"MRSA [4]; 5518 (EMRSA-1), no plasma",8 µg/mL
same,MIC of methicillin,"MRSA [4]; L277, +1% human plasma",32 µg/mL
same,MIC of methicillin,"MRSA [4]; L277, no plasma",8 µg/mL
same,MIC of methicillin,"MRSA [4]; L278, +1% human plasma",256 µg/mL
same,MIC of methicillin,"MRSA [4]; L278, no plasma",64 µg/mL
same,MIC of methicillin,"MRSA [4]; L279, +1% human plasma",256 µg/mL
same,MIC of methicillin,"MRSA [4]; L279, no plasma",64 µg/mL
same,MIC of methicillin,"MRSA [4]; L280, +1% human plasma",64 µg/mL
same,MIC of methicillin,"MRSA [4]; L280, no plasma",16 µg/mL
same,MIC of methicillin,"MRSA [4]; L281, +1% human plasma",32 µg/mL
same,MIC of methicillin,"MRSA [4]; L281, no plasma",8 µg/mL
same,MIC of methicillin,"MRSA [4]; L282, +1% human plasma",256 µg/mL
same,MIC of methicillin,"MRSA [4]; L282, no plasma",32 µg/mL
same,MIC of methicillin,"MRSA [4]; L283, +1% human plasma",128 µg/mL
same,MIC of methicillin,"MRSA [4]; L283, no plasma",32 µg/mL
same,MIC of methicillin,"MRSA [4]; L284, +1% human plasma",256 µg/mL
same,MIC of methicillin,"MRSA [4]; L284, no plasma",32 µg/mL
same,MIC of methicillin,"MRSA [4]; L285, +1% human plasma",256 µg/mL
same,MIC of methicillin,"MRSA [4]; L285, no plasma",32 µg/mL
same,MIC of methicillin,"MRSA [4]; L286, +1% human plasma",64 µg/mL
same,MIC of methicillin,"MRSA [4]; L286, no plasma",32 µg/mL
same,MIC of methicillin,"MRSA [4]; L287, +1% human plasma",128 µg/mL
same,MIC of methicillin,"MRSA [4]; L287, no plasma",32 µg/mL
same,MIC of methicillin,"MRSA [4]; L288, +1% human plasma",128 µg/mL
same,MIC of methicillin,"MRSA [4]; L288, no plasma",32 µg/mL
same,MIC of methicillin,"MRSA [4]; L289, +1% human plasma",256 µg/mL
same,MIC of methicillin,"MRSA [4]; L289, no plasma",32 µg/mL
same,MIC of methicillin,"MRSA [4]; L290, +1% human plasma",128 µg/mL
same,MIC of methicillin,"MRSA [4]; L290, no plasma",32 µg/mL
same,MIC of methicillin,"MRSA [4]; L291, +1% human plasma",64 µg/mL
same,MIC of methicillin,"MRSA [4]; L291, no plasma",32 µg/mL
same,MIC of methicillin,"MRSA [4]; L292, +1% human plasma",256 µg/mL
same,MIC of methicillin,"MRSA [4]; L292, no plasma",32 µg/mL
same,MIC of methicillin,"MRSA [4]; L293, +1% human plasma",128 µg/mL
same,MIC of methicillin,"MRSA [4]; L293, no plasma",32 µg/mL
same,MIC of methicillin,"MRSA [4]; L294, +1% human plasma",128 µg/mL
same,MIC of methicillin,"MRSA [4]; L294, no plasma",16 µg/mL
